Experimental data published in ChEMBL document CHEMBL3508693.

Legend:
Format in all cases: cell-free
[1] = organism: Mus musculus; assay: In vitro plasma protein binding (reported as Fu[%]) of 10,000 ng.ml-1 [14C] aliskiren hemifumarate in pooled plasma samples of mouse; parameters: conc 10000 ng.ml-1, sampling time 1 h; conditions: CD-1(ICR)BR, tested as the 14C-labelled form, at 10000 ng/mL
[2] = organism: Rattus norvegicus; assay: In vitro plasma protein binding (reported as Fu[%]) of 10,000 ng.ml-1 [14C] aliskiren hemifumarate in pooled plasma samples of rat; parameters: conc 10000 ng.ml-1, sampling time 1 h; conditions: WI(Glx/BRL/Han)BR, tested as the 14C-labelled form, at 10000 ng/mL
[3] = organism: Oryctolagus cuniculus; assay: In vitro plasma protein binding (reported as Fu[%]) of 10,000 ng.ml-1 [14C] aliskiren hemifumarate in pooled plasma samples of rabbit; parameters: conc 10000 ng.ml-1, sampling time 1 h; conditions: New Zealand White, tested as the 14C-labelled form, at 10000 ng/mL
[4] = organism: Callithrix jacchus; assay: In vitro plasma protein binding (reported as Fu[%]) of 10,000 ng.ml-1 [14C] aliskiren hemifumarate in pooled plasma samples of marmoset; parameters: conc 10000 ng.ml-1, sampling time 1 h; conditions: tested as the 14C-labelled form, at 10000 ng/mL
[5] = organism: Homo sapiens; assay: (§1) In vitro plasma protein binding (reported as Fu[%]) of 500 ng.ml-1 [14C] aliskiren hemifumarate in human; parameters: conc 500 ng.ml-1, sampling time 1 h; conditions: tested as the 14C-labelled form, at 500 ng/mL
[6] = organism: Homo sapiens; assay: as §1; parameters: conc 500 ng.ml-1, sampling time 1 h; conditions: tested as the 14C-labelled form, at 500 ng/mL; remark: listed apart in the source
[7] = organism: Homo sapiens; assay: as §1; parameters: conc 500 ng.ml-1, sampling time 1 h; conditions: tested as the 14C-labelled form, at 500 ng/mL; remark: listed apart in the source

Structure (SMILES): COCCCOc1cc(C[C@@H](C[C@H](N)[C@@H](O)C[C@H](C(=O)NCC(C)(C)C(N)=O)C(C)C)C(C)C)ccc1OC
- Fu [1]: 28.8%
- Fu [2]: 38.3%
- Fu [3]: 42.5%
- Fu [4]: 8.1%
- Fu [5]: 49.8%
- Fu [6]: 47.3%
- Fu [7]: 51.4%
